The values that follow come from paper PMC5908839 (Scientific Reports, 2018).

This test deals with T1, AioX (Pseudorhizobium banfieldiae, UniProt L0NML6).
T1 construct: 304 amino acid residues; His-tag removed; SeMet-labelled
T1 sequence (L0NML6 27-304): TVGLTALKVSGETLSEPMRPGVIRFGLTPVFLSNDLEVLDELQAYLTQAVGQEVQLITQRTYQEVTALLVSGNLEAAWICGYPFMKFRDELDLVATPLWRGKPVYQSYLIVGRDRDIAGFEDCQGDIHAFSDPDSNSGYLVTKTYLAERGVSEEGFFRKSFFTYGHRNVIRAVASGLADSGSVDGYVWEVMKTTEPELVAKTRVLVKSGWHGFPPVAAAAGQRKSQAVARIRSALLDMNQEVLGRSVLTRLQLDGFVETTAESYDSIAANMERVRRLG
Put plainly: X-ray crystal structure ([…] Å; phosphate from the crystallisation conditions); no binding detected by ITC.

SMILES strings stand for the structures.

A word on the Kd: it is the concentration at which binding is half-saturated. In turn, `O=P(O)(O)O` [phosphate] displayed a Kd greater than 2000 µM.
